Source: US11591336B2 (Relay Therapeutics, Inc., priority 2017, dated 2023)
Structures can show the parent of a compound that is named as a salt.

Target: SHP2 (Homo sapiens (Human), UniProt Q06124)
Assay: SHP2 Allosteric Inhibition Assay (DiFMUP prompt fluorescence)
Assay type: biochemical
Settings: 0.25 nM SHP2 activated with 0.5 μM peptide IRS1_pY1172(dPEG8)pY1222; substrate DiFMUP 100 μM; 25° C.

SHP2, sequence (Q06124 whole entry): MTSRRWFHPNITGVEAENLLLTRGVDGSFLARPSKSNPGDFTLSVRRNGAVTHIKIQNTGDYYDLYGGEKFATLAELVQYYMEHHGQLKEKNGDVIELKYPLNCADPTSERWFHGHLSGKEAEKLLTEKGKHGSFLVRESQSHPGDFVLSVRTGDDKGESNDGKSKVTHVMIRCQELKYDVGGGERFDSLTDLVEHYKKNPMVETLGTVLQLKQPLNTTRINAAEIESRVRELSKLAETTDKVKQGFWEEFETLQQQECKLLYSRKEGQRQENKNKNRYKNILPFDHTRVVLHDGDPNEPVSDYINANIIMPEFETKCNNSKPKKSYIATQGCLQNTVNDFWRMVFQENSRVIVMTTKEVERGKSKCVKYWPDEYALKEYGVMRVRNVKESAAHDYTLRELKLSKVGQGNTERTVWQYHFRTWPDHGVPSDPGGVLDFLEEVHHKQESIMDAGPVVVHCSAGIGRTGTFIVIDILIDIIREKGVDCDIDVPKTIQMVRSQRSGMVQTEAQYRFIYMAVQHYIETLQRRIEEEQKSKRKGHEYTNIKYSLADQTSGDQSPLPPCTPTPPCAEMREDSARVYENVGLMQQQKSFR

| Structure (SMILES) | IC50 [nM] |
| --- | --- |
| C[C@@H]1OCC2(CCN(c3cnc4c(N5CCc6c(C#N)cccc6C5)n[nH]c4n3)CC2)[C@@H]1N [Compound 274] | < 1000 |
| C[C@@H]1OCC2(CCN(c3cnc4c(N5CC(=O)N(C)c6cc(C#N)ccc65)n[nH]c4n3)CC2)[C@@H]1N [Compound 275, 1-{6-[(3S,4S)-4-amino-3-methyl-2-oxa-8-azaspiro[4.5]decan-8-yl]-1H-pyrazolo[3,4-b]pyrazin-3-yl}-4-methyl-3-oxo-1,2,3,4-tetrahydroquinoxaline-6-carbonitrile] | < 1000 |
| C[C@@H]1OCC2(CCN(c3cnc4c(N5CCN(C)c6cnccc65)n[nH]c4n3)CC2)[C@@H]1N [Compound 276] | < 1000 |
| C[C@@H]1CCN(c2n[nH]c3nc(N4CCC5(CC4)CO[C@@H](C)[C@H]5N)cnc23)c2cccc(-c3cnn(C)c3)c21 [Compound 277] | < 1000 |
| C[C@@H]1OCC2(CCN(c3cnc4c(N5CC[C@H](C)c6c(-c7cnn(C)c7)cccc65)n[nH]c4n3)CC2)[C@@H]1N [Compound 278] | < 1000 |
| C[C@@H]1OCC2(CCN(c3cnc4c(N5CCCc6nc(-n7cncn7)ccc65)n[nH]c4n3)CC2)[C@@H]1N [Compound 279] | < 1000 |
| C[C@@H]1OCC2(CCN(c3cnc4c(N5CCCc6nc(-c7ccn(C)n7)ccc65)n[nH]c4n3)CC2)[C@@H]1N [Compound 280, (3S,4S)-3-methyl-8-{3-[6-(1-methyl-1H-pyrazol-3-yl)-1,2,3,4-tetrahydro-1,5-naphthyridin-1-yl]-1H-pyrazolo[3,4-b]pyrazin-6-yl}-2-oxa-8-azaspiro[4.5]decan-4-amine] | < 1000 |
| C[C@@H]1OCC2(CCN(c3cnc4c(N5CCCc6c5cccc6S(C)(=O)=O)n[nH]c4n3)CC2)[C@@H]1N [Compound 281, (3S,4S)-8-[3-(5-methanesulfonyl-1,2,3,4-tetrahydroquinolin-1-yl)-1H-pyrazolo[3,4-b]pyrazin-6-yl]-3-methyl-2-oxa-8-azaspiro[4.5]decan-4-amine] | < 1000 |
| CNC(=O)c1ccc2c(n1)CCCN2c1n[nH]c2nc(N3CCC4(CC3)CO[C@@H](C)[C@H]4N)cnc12 [Compound 282, 5-(6-((3S,4S)-4-amino-3-methyl-2-oxa-8-azaspiro[4.5]decan-8-yl)-1H-pyrazolo[3,4-b]pyrazin-3-yl)-N-methyl-5,6,7,8-tetrahydro-1,5-naphthyridine-2-carboxamide] | < 1000 |
| C[C@@H]1OCC2(CCN(c3cnc4c(N5CCC(C(F)F)c6cc(C#N)ccc65)n[nH]c4n3)CC2)[C@@H]1N (stereo partly drawn) [Compound 283] | < 1000 |
| C[C@@H]1OCC2(CCN(c3cnc4c(N5CC[C@H](C)c6nc(-c7cnn(C)c7)ccc65)n[nH]c4n3)CC2)[C@@H]1N [Compound 284, (3S,4S)-3-methyl-8-{3-[(4S)-4-methyl-6-(1-methyl-1H-pyrazol-4-yl)-1,2,3,4-tetrahydro-1,5-naphthyridin-1-yl]-1H-pyrazolo[3,4-b]pyrazin-6-yl}-2-oxa-8-azaspiro[4.5]decan-4-amine] | < 1000 |
| C[C@@H]1OCC2(CCN(c3cnc4c(N5CCc6ccc(C#N)cc6C5)n[nH]c4n3)CC2)[C@@H]1N [Compound 286] | < 1000 |
| CNC(=O)c1ccc2c(c1)[C@@H](C)CCN2c1n[nH]c2nc(N3CCC4(CC3)CO[C@@H](C)[C@H]4N)cnc12 [Compound 288, (4S)-1-{6-[(3S,4S)-4-amino-3-methyl-2-oxa-8-azaspiro[4.5]decan-8-yl]-1H-pyrazolo[3,4-b]pyrazin-3-yl}-N,4-dimethyl-1,2,3,4-tetrahydroquinoline-6-carboxamide] | < 1000 |
| C[C@@H]1OCC2(CCN(c3cnc4c(N5CCCc6c5ccnc6-c5cn[nH]c5)n[nH]c4n3)CC2)[C@@H]1N [Compound 289] | < 1000 |
| Cn1cc(-c2ccc3c(n2)CCCN3c2n[nH]c3nc(N4CCC5(CC4)COC[C@H]5N)cnc23)cn1 [Compound 290] | < 1000 |
| C[C@@H]1OCC2(CCN(c3cnc4c(N5CCc6cnccc6C5)n[nH]c4n3)CC2)[C@@H]1N [Compound 291] | < 1000 |
| Cc1ccc2c(n1)CCCN2c1n[nH]c2nc(N3CCC4(CC3)CO[C@@H](C)[C@H]4N)cnc12 [Compound 292] | < 1000 |
| C[C@@H]1OCC2(CCN(c3cnc4c(N5CCCc6nc(-c7ncco7)ccc65)n[nH]c4n3)CC2)[C@@H]1N [Compound 295, (3S,4S)-3-methyl-8-(3-(6-(oxazol-2-yl)-3,4-dihydro-1,5-naphthyridin-1(2H)-yl)-1H-pyrazolo[3,4-b]pyrazin-6-yl)-2-oxa-8-azaspiro[4.5]decan-4-amine] | < 1000 |
| C[C@@H]1OCC2(CCN(c3cnc4c(N5CCNc6nc(-c7cnn(C)c7)ccc65)n[nH]c4n3)CC2)[C@@H]1N [Compound 296, (3S,4S)-3-methyl-8-(3-(6-(1-methyl-1H-pyrazol-4-yl)-3,4-dihydropyrido[2,3-b]pyrazin-1(2H)-yl)-1H-pyrazolo[3,4-b]pyrazin-6-yl)-2-oxa-8-azaspiro[4.5]decan-4-amine] | < 1000 |
| C[C@@H]1OCC2(CCN(c3cnc4c(N5CCCc6nc(C(F)F)ccc65)n[nH]c4n3)CC2)[C@@H]1N [Compound 297] | < 1000 |

| Structure (SMILES) | IC50 [nM] |
| --- | --- |
| Cn1cc(-c2ccc3c(n2)CCCN3c2n[nH]c3nc(N4CCC5(CCC[C@H]5N)CC4)cnc23)cn1 [Compound 298, (R)-8-(3-(6-(1-methyl-1H-pyrazol-4-yl)-3,4-dihydro-1,5-naphthyridin-1(2H)-yl)-1H-pyrazolo[3,4-b]pyrazin-6-yl)-8-azaspiro[4.5]decan-1-amine] | < 1000 |
| C[C@H]1CCN(c2n[nH]c3nc(N4CCC5(CC4)COC[C@H]5N)cnc23)c2ccc(-c3ncon3)cc21 [Compound 299, (4S)-8-{3-[(4S)-4-methyl-6-(1,2,4-oxadiazol-3-yl)-1,2,3,4-tetrahydroquinolin-1-yl]-1H-pyrazolo[3,4-b]pyrazin-6-yl}-2-oxa-8-azaspiro[4.5]decan-4-amine] | < 1000 |
| C[C@@H]1OCC2(CCN(c3cnc4c(N5CCN(C)c6ncccc65)n[nH]c4n3)CC2)[C@@H]1N [Compound 301] | < 1000 |
| CC(=O)N1CCN(c2n[nH]c3nc(N4CCC5(CC4)CO[C@@H](C)[C@H]5N)cnc23)c2ccc(C#N)cc21 [Compound 302] | < 1000 |
| C[C@@H]1OCC2(CCN(c3cnc4c(N5CCCc6c5ccnc6-c5ccnn5C)n[nH]c4n3)CC2)[C@@H]1N [Compound 303] | < 1000 |
| C[C@@H]1OCC2(CCN(c3cnc4c(N5CCCc6nc(-c7cncnc7)ccc65)n[nH]c4n3)CC2)[C@@H]1N [Compound 304] | < 1000 |
| C[C@@H]1OCC2(CCN(c3cnc4c(N5CCCc6nc(-c7ccnnc7)ccc65)n[nH]c4n3)CC2)[C@@H]1N [Compound 305] | < 1000 |
| CC(=O)NCc1ccc2c(n1)CCCN2c1n[nH]c2nc(N3CCC4(CC3)CO[C@@H](C)[C@H]4N)cnc12 [Compound 306, N-[(5-{6-[(3S,4S)-4-amino-3-methyl-2-oxa-8-azaspiro[4.5]decan-8-yl]-1H-pyrazolo[3,4-b]pyrazin-3-yl}-5,6,7,8-tetrahydro-1,5-naphthyridin-2-yl)methyl]acetamide dihydrochloride] | < 1000 |
| C[C@@H]1OCC2(CCN(c3cnc4c(N5CCCc6c5ccnc6N5CCOCC5)n[nH]c4n3)CC2)[C@@H]1N [Compound 307] | < 1000 |
| C[C@@H]1OCC2(CCN(c3cnc4c(N5CCCc6nc(-n7cnnc7)ccc65)n[nH]c4n3)CC2)[C@@H]1N [Compound 308] | < 1000 |
| C[C@@H]1OCC2(CCN(c3cnc4c(N5CCCc6nc(C7CCOC7)ccc65)n[nH]c4n3)CC2)[C@@H]1N (stereo partly drawn) [Compound 309, (3S,4S)-3-methyl-8-(3-(6-(tetrahydrofuran-3-yl)-3,4-dihydro-1,5-naphthyridin-1(2H)-yl)-1H-pyrazolo[3,4-b]pyrazin-6-yl)-2-oxa-8-azaspiro[4.5]decan-4-amine] | < 1000 |
| C[C@@H]1OCC2(CCN(c3cnc4c(N5CCN(C)c6nc(-c7cnn(C)c7)ccc65)n[nH]c4n3)CC2)[C@@H]1N [Compound 310, (3S,4S)-3-methyl-8-(3-(4-methyl-6-(1-methyl-1H-pyrazol-4-yl)-3,4-dihydropyrido[2,3-b]pyrazin-1(2H)-yl)-1H-pyrazolo[3,4-b]pyrazin-6-yl)-2-oxa-8-azaspiro[4.5]decan-4-amine] | < 1000 |
| CCCn1cc(-c2ccc3c(n2)CCCN3c2n[nH]c3nc(N4CCC5(CC4)CO[C@@H](C)[C@H]5N)cnc23)cn1 [Compound 311, (3S,4S)-3-methyl-8-{3-[6-(1-propyl-1H-pyrazol-4-yl)-1,2,3,4-tetrahydro-1,5-naphthyridin-1-yl]-1H-pyrazolo[3,4-b]pyrazin-6-yl}-2-oxa-8-azaspiro[4.5]decan-4-amine] | < 1000 |
| CC(C)n1cc(-c2ccc3c(n2)CCCN3c2n[nH]c3nc(N4CCC5(CC4)CO[C@@H](C)[C@H]5N)cnc23)cn1 [Compound 312, (3S,4S)-8-(3-(6-(1-isopropyl-1H-pyrazol-4-yl)-3,4-dihydro-1,5-naphthyridin-1(2H)-yl)-1H-pyrazolo[3,4-b]pyrazin-6-yl)-3-methyl-2-oxa-8-azaspiro[4.5]decan-4-amine] | < 1000 |
| CNC(=O)N1CCN(c2n[nH]c3nc(N4CCC5(CC4)CO[C@@H](C)[C@H]5N)cnc23)c2ncccc21 [Compound 313, 4-{6-[(3S,4S)-4-amino-3-methyl-2-oxa-8-azaspiro[4.5]decan-8-yl]-1H-pyrazolo[3,4-b]pyrazin-3-yl}-N-methyl-1H,2H,3H,4H-pyrido[2,3-b]pyrazine-1-carboxamide] | 1000 to 10000 |
| C[C@@H]1OCC2(CCN(c3cnc4c(N5CCCc6nc(Oc7cnn(C)c7)ccc65)n[nH]c4n3)CC2)[C@@H]1N [Compound 314] | < 1000 |
| COc1ccc2c(n1)CCCN2c1n[nH]c2nc(N3CCC4(CC3)CO[C@@H](C)[C@H]4N)cnc12 [Compound 315] | < 1000 |
| C[C@@H]1OCC2(CCN(c3cnc4c(N5CCNc6cc(-c7cnn(C)c7)ccc65)n[nH]c4n3)CC2)[C@@H]1N [Compound 316, (3S,4S)-3-methyl-8-{3-[6-(1-methyl-1H-pyrazol-4-yl)-1,2,3,4-tetrahydroquinoxalin-1-yl]-1H-pyrazolo[3,4-b]pyrazin-6-yl}-2-oxa-8-azaspiro[4.5]decan-4-amine] | < 1000 |
| C[C@@H]1OCC2(CCN(c3cnc4c(N5CCCc6nc(-c7cnn(C(F)F)c7)ccc65)n[nH]c4n3)CC2)[C@@H]1N [Compound 317] | < 1000 |
